Test results taken from ChEMBL document CHEMBL3714716, “Modulators of the relaxin receptor 1” (2015).
In brackets after ≈: the same amount, converted by molar mass. Activity calls are given as the source filed them. The calls are words filed in the database; no cut-off is given here.

Legend:
[1] = biological target: T1, Relaxin receptor 1 (Homo sapiens) (UniProt Q9HBX9); test: Agonist activity at RXFP1 receptor (unknown origin) expressed in HEK293 cells assessed as stimulation of cAMP production incubated for 30 mins by TR-FRET based HTRF assay relative to forskolin; assay type: functional, cell-based
T1 sequence (whole entry): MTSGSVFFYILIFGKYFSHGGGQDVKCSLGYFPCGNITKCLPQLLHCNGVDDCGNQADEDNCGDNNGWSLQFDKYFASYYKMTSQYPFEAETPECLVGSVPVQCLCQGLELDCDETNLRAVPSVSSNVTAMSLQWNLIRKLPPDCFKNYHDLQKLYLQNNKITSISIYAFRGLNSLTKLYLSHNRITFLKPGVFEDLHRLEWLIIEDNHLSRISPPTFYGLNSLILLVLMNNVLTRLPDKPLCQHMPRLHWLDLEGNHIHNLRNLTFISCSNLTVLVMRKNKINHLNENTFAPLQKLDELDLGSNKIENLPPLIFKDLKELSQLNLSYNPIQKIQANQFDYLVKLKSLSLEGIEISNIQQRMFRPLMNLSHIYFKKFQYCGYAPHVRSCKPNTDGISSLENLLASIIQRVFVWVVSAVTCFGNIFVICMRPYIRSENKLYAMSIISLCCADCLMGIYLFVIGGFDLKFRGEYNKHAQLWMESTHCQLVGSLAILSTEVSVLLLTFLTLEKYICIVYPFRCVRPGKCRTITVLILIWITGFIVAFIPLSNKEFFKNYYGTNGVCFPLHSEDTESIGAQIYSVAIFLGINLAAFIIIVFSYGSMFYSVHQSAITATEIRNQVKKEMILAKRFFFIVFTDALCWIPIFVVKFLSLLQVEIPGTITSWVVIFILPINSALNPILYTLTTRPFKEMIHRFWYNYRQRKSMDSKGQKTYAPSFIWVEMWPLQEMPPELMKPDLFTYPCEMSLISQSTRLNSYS

[2] = Stimulation of VEGF gene expression in human THP1 cells assessed as change in VEGF mRNA level incubated for 2 hrs by quantitative real time RT-PCR method relative to control; assay type: functional, cell-based; details: THP-1
Relaxin receptor 1 [3] = biological target: T2, Relaxin receptor 1 (Homo sapiens, UniProt Q9HBX9); test: Agonist activity at RXFP1 receptor (unknown origin) expressed in HEK293 cells assessed as stimulation of cAMP production incubated for 30 mins by TR-FRET based HTRF assay; assay type: functional, cell-based
T2 sequence (Q9HBX9 whole entry): T1 sequence (whole entry)

Relaxin receptor 1 [4] = biological target: T2, Relaxin receptor 1; test: Agonist activity at RXFP1 receptor in human THP1 cells assessed as stimulation of cAMP production incubated for 30 mins by HTRF assay; assay type: functional, cell-based, THP-1
[5] = biological target: T1, Relaxin receptor 1 (Homo sapiens); test: Agonist activity at RXFP1 receptor (unknown origin) expressed in HEK293 cells assessed as increase cell impedance at 250 to 750 nM measured every 10 to 30 secs for 1 hr by real time cell analyzer method; assay type: functional, cell-based
Relaxin receptor 2 [6] = biological target: T3, Relaxin receptor 2 (Homo sapiens, UniProt Q8WXD0); test: Agonist activity at RXFP2 receptor (unknown origin) expressed in HEK293 cells assessed as stimulation of cAMP production incubated for 30 mins by HTRF assay; assay type: functional, cell-based
[7] = Cytotoxic activity against HEK293 cells assessed as reduction in cell viability by measuring ATP level incubated for 72 hrs by ATP cytotoxicity assay relative to control; assay type: cell-based; details: human, read-out: %max
Vasopressin V1b receptor = biological target: T4, Vasopressin V1b receptor (Homo sapiens, UniProt P47901); test: Agonist activity at vasopressin receptor 1b (unknown origin) expressed in HEK293 cells assessed as stimulation of cAMP production incubated for 30 mins by HTRF assay; assay type: functional, cell-based
T4 sequence (P47901 whole entry): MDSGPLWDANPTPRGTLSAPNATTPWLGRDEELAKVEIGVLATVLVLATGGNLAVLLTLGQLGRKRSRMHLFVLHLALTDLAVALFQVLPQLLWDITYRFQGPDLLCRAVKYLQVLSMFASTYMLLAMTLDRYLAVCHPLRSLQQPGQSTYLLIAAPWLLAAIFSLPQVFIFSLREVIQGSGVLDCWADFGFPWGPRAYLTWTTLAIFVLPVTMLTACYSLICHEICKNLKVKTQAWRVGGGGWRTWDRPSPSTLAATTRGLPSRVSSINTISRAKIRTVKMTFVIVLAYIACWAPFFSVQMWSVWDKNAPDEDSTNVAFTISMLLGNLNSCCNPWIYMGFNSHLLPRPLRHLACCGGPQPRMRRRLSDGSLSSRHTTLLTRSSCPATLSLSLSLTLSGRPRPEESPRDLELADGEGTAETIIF

Relaxin receptor 2 [8] = biological target: T3, Relaxin receptor 2; test: Agonist activity at RXFP2 receptor (unknown origin) expressed in HEK293 cells assessed as stimulation of cAMP production incubated for 30 mins by HTRF assay relative to control; assay type: functional, cell-based
[9] = Solubility in PBS buffer; assay type: physicochemical
[10] = biological target: T5, Vasopressin V1b receptor (Homo sapiens) (UniProt P47901); test: Agonist activity at vasopressin receptor 1b (unknown origin) expressed in HEK293 cells assessed as stimulation of cAMP production incubated for 30 mins by HTRF assay relative to control; assay type: functional, cell-based
T5 sequence (whole entry): T4 sequence (P47901 whole entry)

HEK293 = test: Cytotoxic activity against HEK293 cells assessed as reduction in cell viability by measuring ATP level incubated for 72 hrs by ATP cytotoxicity assay; assay type: cell-based, Homo sapiens
[11] = Half life in mouse liver microsomes; assay type: ADME
[12] = Homo sapiens, HEK293, 72 h, read-out: EC50

T3 sequence (Q8WXD0 whole entry): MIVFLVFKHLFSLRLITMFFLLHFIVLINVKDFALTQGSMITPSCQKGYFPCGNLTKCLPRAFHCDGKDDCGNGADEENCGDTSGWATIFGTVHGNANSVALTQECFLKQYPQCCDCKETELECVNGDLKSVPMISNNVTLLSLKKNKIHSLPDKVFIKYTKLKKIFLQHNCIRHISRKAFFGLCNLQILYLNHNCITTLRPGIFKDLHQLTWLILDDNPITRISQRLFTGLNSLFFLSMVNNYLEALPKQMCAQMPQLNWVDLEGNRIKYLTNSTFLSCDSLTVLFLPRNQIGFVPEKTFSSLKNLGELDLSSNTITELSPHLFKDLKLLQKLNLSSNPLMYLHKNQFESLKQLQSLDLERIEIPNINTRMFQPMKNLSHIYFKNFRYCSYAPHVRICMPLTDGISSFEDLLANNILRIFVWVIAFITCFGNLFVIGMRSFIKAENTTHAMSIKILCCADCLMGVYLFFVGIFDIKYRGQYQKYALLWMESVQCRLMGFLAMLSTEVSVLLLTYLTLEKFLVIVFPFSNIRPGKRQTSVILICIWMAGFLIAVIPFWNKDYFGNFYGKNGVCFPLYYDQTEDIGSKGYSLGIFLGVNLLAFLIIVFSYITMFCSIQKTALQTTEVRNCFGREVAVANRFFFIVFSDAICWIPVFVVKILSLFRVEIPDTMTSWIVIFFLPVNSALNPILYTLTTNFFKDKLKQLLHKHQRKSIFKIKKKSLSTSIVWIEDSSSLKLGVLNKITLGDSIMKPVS

SMILES | %max [1] | fold change (FC) [2] | AC50 (Relaxin receptor 1 [3]; read-out: AC50) | EC50 (Relaxin receptor 1 [4]) | Activity [5] | AC50 (Relaxin receptor 2 [6]; hek293) | Emax at 72 h [7] | AC50 (Vasopressin V1b receptor) | %max (Relaxin receptor 2 [8]) | solubility [9] | %max [10] | EC50 (HEK293; [12]) | half-life [11] | AC50 (Relaxin receptor 1 [3]; hek293) | AC50 (Relaxin receptor 2 [6]; read-out: AC50) | EC50 (HEK293; hek293)
CCCCOc1ccccc1C(=O)Nc1ccccc1C(=O)Nc1cccc(S(=O)(=O)C(F)(F)F)c1 | 98% | 1.6 | 0.047 µM | 0.124 µM | Active |  |  |  |  |  |  |  |  |  |  | 
O=C(Nc1cccc(C(F)(F)F)c1)c1ccccc1NC(=O)c1cccc2nc[nH]c12 | 90% |  | 11.8 µM |  |  | Not Active | -76% | Not Active | < 30% | 6.3 µM (≈ 2.67 µg/mL) | < 30% |  |  |  |  | 
O=C(Nc1cccc(S(=O)(=O)C(F)(F)F)c1)c1ccccc1NC(=O)c1ccccc1OCC(F)(F)F | 97% | 1.3 | 0.067 µM | 0.107 µM |  |  |  |  |  |  |  |  |  |  |  | 
CCOc1ccccc1C(=O)Nc1ccccc1C(=O)Nc1cccc(C(F)(F)F)c1 | 94% | 1.9 | 0.265 µM | 0.471 µM |  |  |  |  |  |  |  |  |  |  |  | 
O=C(Nc1ccccc1C(=O)Nc1cccc(C(F)(F)F)c1)c1ccncc1 | 51% |  | 7.47 µM |  |  | Not Active | 83% | Not Active | < 30% | 17 µM (≈ 6.55 µg/mL) | < 30% | 9.4 µM |  |  |  | 
O=C(Nc1ccccc1C(=O)Nc1cccc(C(F)(F)F)c1)c1cccs1 | 88% |  | 1.88 µM |  |  | Not Active | -78% | Not Active | < 30% | 3.3 µM (≈ 1.29 µg/mL) | < 30% |  | 1.67 h |  |  | 
O=C(Nc1ccc2cc[nH]c2c1)c1ccccc1NC(=O)C1CCCCC1 | inactive |  |  |  |  |  | < 30% | Not Active | 47% | 1.7 µM (≈ 0.614 µg/mL) | < 30% |  |  | Not Active | 9.4 µM | Non-toxic
CCOc1ccccc1C(=O)Nc1ccccc1C(=O)Nc1cccc(S(=O)(=O)C(F)(F)F)c1 | 99% | 2.3 |  | 0.362 µM |  |  |  |  |  |  |  |  |  |  |  | 
O=C(Nc1ccccc1C(=O)Nc1cccc(C(F)(F)F)c1)c1ccc2c(c1)OCO2 | 81% |  | 6.66 µM |  |  |  | -31% | Not Active | 54% | 2.9 µM (≈ 1.24 µg/mL) | < 30% | 3.74 µM |  |  | 3.34 µM | 
COc1ccccc1C(=O)Nc1ccccc1C(=O)Nc1cccc(SC(F)(F)F)c1 | 99% | 1.2 | 0.297 µM | 0.523 µM |  |  |  |  |  |  |  |  |  |  |  | 
O=C(Nc1ccccc1C(=O)Nc1cccc(C(F)(F)F)c1)c1cccnc1 | 95% |  | 5.93 µM |  |  | Not Active | 85% | Not Active | < 30% | 7 µM (≈ 2.7 µg/mL) | < 30% | 9.4 µM |  |  |  | 
O=C(Nc1ccccc1C(=O)Nc1cccc(C(F)(F)F)c1)c1ccno1 | 93% |  | 14.9 µM |  |  |  | -73% | Not Active | 38% | < 1.1 µM | < 30% |  |  |  | 7.47 µM | 
COc1ccccc1C(=O)Nc1ccccc1C(=O)Nc1cccc(S(=O)(=O)C(F)(F)F)c1 | 99% | 1.4 | 0.188 µM | 0.358 µM |  |  |  |  |  |  |  |  |  |  |  | 
O=C(Nc1cccc(C(F)(F)F)c1)c1ccccc1NC(=O)C1CCCCC1 | 92% |  | 0.047 µM |  |  | Not Active | -53% | Not Active | < 30% | 5.3 µM (≈ 2.07 µg/mL) | < 30% | 59.3 µM |  |  |  | 
O=C(Nc1ccc(Br)cc1)c1ccccc1NC(=O)C1CCCCC1 | 50% |  | 118 µM |  |  |  |  |  |  |  |  |  |  |  |  | 
O=C(Nc1ccccc1C(=O)Nc1cccc(C(F)(F)F)c1)c1cccc(-c2ccccc2)c1 | 89% |  | 5.29 µM |  |  |  |  |  |  |  |  |  |  |  |  | 
